Data taken from patent US20150094294A1, “COMPOUNDS AND METHODS FOR TREATING MALARIA” (Cellceutix Corporation, priority 2012, published 2015).

What was measured:
Type in all cases: cell-based
HepG2 cells = test: Cytotoxicity against HepG2 cells
3T3 cells = test: Cytotoxicity against 3T3 cells
[1] = test system: P. falciparum 3D7 (chloroquine-sensitive); test: Anti-malarial activity, P. falciparum 3D7 culture, 72 hour, DNA content by flow cytometry; details: synchronized ring-stage parasites
Procedure: Numerous compounds were screened in cultures of the malaria parasite P. falciparum 3D7 (chloroquine-sensitive) and DD2 (chloroquine-resistant). The compounds were also screened for toxixcity against 3T3 cells, HepG2 cells, and in a hemolysis assay. In brief, P. falciparum parasites were cultured in RPMI 1640 (Invitrogen) supplemented with Albumax II (Invitrogen). For synchronization, schizont stage parasites were magnet purified using a SuperMACS™ II Cell Separation Unit (Miltenyi Biotech). For IC50 determinations, synchronized ring-stage parasites were plated at 0.5% parasitemia and 8% hematocrit in 96-well plates at a total volume of 50 μL. Serial dilutions of 2× concentration of the respective compound, ranging from 2.5 μM to 20 nM, were added to the wells to bring the total volume up to 100 μL and 4% hematocrit. Compounds were assayed for a 72 hour period, after which the cultures were fixed with a solution of 4% paraformaldehyde and 0.08% glutaraldhyde in PBS. The cells were then permeabilized with 0.25% Triton X-100, and SYTOX Green Nucleic Acid Stain (Invitrogen) in PBS was added to a final concentration of 5 μM. DNA content, as an indicator of parasitemia, was analyzed on an Accuri C6 Flow Cytometer with C-Sampler. IC50 curves were generated using GraphPad Prism (GraphPad Software).

Structure (SMILES) | IC50 [1] | EC50 (HepG2 cells) | EC50 (3T3 cells)
N=C(N)NCCCCC(=O)Nc1cc(F)cc(NC(=O)c2cc(C(=O)Nc3cc(F)cc(NC(=O)CCCCNC(=N)N)c3SCCN)ncn2)c1SCCN [Compound 105] | 0.225 µM | 81 µM | 44 µM
CCN(CC)CCN(CCN)c1c(Cl)cc(C(F)(F)F)cc1NC(=O)Nc1cc(C(F)(F)F)cc(Cl)c1N(CCN)CCN(CC)CC [Compound 124] | 0.32 µM | 24 µM | 20 µM
N=C(N)NCCCOc1cccc(-c2cncc(-c3cccc(OCCCNC(=N)N)c3)c2)c1 [Compound 133] | 0.116 µM | 551 µM | 295 µM
N=C(N)NCCCc1cccc(-c2cc(-c3cccc(CCCNC(=N)N)c3)ncn2)c1 [Compound 135] | 0.131 µM | 697 µM | 623 µM
N=C(N)NCCCOc1cc(OCCCNC(=N)N)c(-c2cccc(F)c2)cc1-c1cccc(F)c1 [Compound 138] | 0.226 µM | 85 µM | 78 µM
O=C(Nc1ccc(O[C@@H]2CCNC2)c(C(F)(F)F)c1)c1cc(C(=O)Nc2ccc(O[C@@H]3CCNC3)c(C(F)(F)F)c2)ncn1 [Compound 187] | 0.041 µM | 130 µM | 42 µM
O=C(Nc1ccc(OC2CCNCC2)cc1)c1cc(C(=O)Nc2ccc(OC3CCNCC3)cc2)ncn1 [Compound 199] | 0.01 µM | 353 µM | 192 µM
O=C(Nc1ccc(OC2CCNC2)c(F)c1)c1cc(C(=O)Nc2ccc(OC3CCNC3)c(F)c2)ncn1 (stereo not drawn) [Compound 209] | 0.066 µM | 516 µM | 431 µM
Nc1cc(NC(=O)c2cc(C(=O)Nc3ccc(N4CCNCC4)c(F)c3)ncn2)ccc1N1CCNCC1 [Compound 218] | 0.056 µM | 233 µM | 46 µM
NCCSc1nc(-c2cccc(CCN)c2)cc(-c2cccc(CCN)c2)n1 [Compound 220] | 1.55 µM | > 1000 µM | > 1000 µM
NCCCOc1cccc(-c2cncc(-c3ccc(-c4cncc(-c5cccc(OCCCN)c5)c4)s3)c2)c1 [Compound 225] | 0.461 µM | 179 µM | 35 µM
N=C(N)NCCCOc1cccc(-c2cncc(-c3ccc(-c4cncc(-c5cccc(OCCCNC(=N)N)c5)c4)s3)c2)c1 [Compound 227] | 0.65 µM | 117 µM | 54 µM
NCCc1cccc(-c2cc(-c3ccc(-c4cc(-c5cccc(CCN)c5)ncn4)s3)ncn2)c1 [Compound 229] | 0.628 µM | 262 µM | 3 µM
N=C(N)NCCc1cccc(-c2cncc(-c3ccc(-c4cncc(-c5cccc(CCNC(=N)N)c5)c4)cc3)c2)c1 [Compound 231] | 0.369 µM | > 1000 µM | 998 µM
NCCc1cccc(-c2ccc(-c3cccc(CCN)c3)s2)c1 [Compound 236] | > 2 µM | 186 µM | < 14 µM
NCCc1cccc(-c2ccc(-c3cccc(CCN)c3)o2)c1 [Compound 237] | > 2 µM | 222 µM | 2 µM
N=C(N)NCCc1cccc(-c2ccc(-c3cccc(CCNC(=N)N)c3)cc2)c1 [Compound 239] | 0.102 µM | 288 µM | 149 µM

Structure (SMILES) | IC50 [1] | EC50 (HepG2 cells) | EC50 (3T3 cells)
NCCCOc1cccc(-c2ccc(-c3cccc(OCCCN)c3)s2)c1 [Compound 241] | > 2 µM | 38 µM | 34 µM
N=C(N)NCCc1cccc(-c2cnc(-c3cccc(CCNC(=N)N)c3)s2)c1 [Compound 243] | 0.058 µM | 723 µM | 523 µM
N=C(N)NCCCOc1cccc(-c2ccc(-c3cccc(OCCCNC(=N)N)c3)s2)c1 [Compound 244] | 0.149 µM | 19 µM | 20 µM
Cn1c(-c2cccc(CCN)c2)cnc1-c1cccc(CCN)c1 [Compound 245] | 0.541 µM | > 1000 µM | > 1000 µM
Cn1c(-c2cccc(CCNC(=N)N)c2)cnc1-c1cccc(CCNC(=N)N)c1 [Compound 246] | 0.005 µM | > 1000 µM | > 1000 µM
NCCc1ccccc1-c1ccc(-c2ccccc2CCN)s1 [Compound 249] | 0.028 µM | 46 µM | 7 µM
NCCc1cccc(-c2cn(-c3cccc(CCN)c3)nn2)c1 [Compound 250] | 0.556 µM | > 1000 µM | > 1000 µM
N=C(N)NCCc1ccccc1-c1ccc(-c2ccccc2CCNC(=N)N)s1 [Compound 251] | 0.012 µM | 692 µM | 559 µM
N=C(N)NCCc1cccc(-c2cn(-c3cccc(CCNC(=N)N)c3)nn2)c1 [Compound 256] | 0.059 µM | > 1000 µM | > 1000 µM
CN1CCN(c2ccc(-c3ccc(-c4ccc(N5CCN(C)CC5)cc4)s3)cc2)CC1 [Compound 260] | > 0.1 µM | > 1000 µM | > 1000 µM
NCCCc1ccc(-c2ccc(-c3ccc(CCCN)cc3)s2)cc1 [Compound 263] |  | 1 µM | 6 µM
C[N+]1(C)CCN(c2ccc(-c3ccc(-c4ccc(N5CC[N+](C)(C)CC5)cc4)o3)cc2)CC1 [Compound 264] |  | > 1000 µM | > 1000 µM
Cn1c(-c2ccc(CCCN)cc2)cnc1-c1ccc(CCCN)cc1 [Compound 265] | > 0.1 µM | > 1000 µM | > 1000 µM
c1cc2sc3ccc(NC4CCNCC4)cc3c2cc1NC1CCNCC1 [Compound 295] |  | > 1000 µM | > 1000 µM
CN(C)C1CCN(c2ccc3sc4ccc(N5CCC(N(C)C)CC5)cc4c3c2)CC1 [Compound 297] |  | 675 µM | 518 µM
CCn1c2ccc(N3CCC(N(C)C)CC3)cc2c2cc(N3CCC(N(C)C)CC3)ccc21 [Compound 298] |  | > 1000 µM | > 1000 µM
NCCSc1c(NC(=O)c2cccnc2)cc(C(F)(F)F)cc1NC(=O)c1cc(C(=O)Nc2cc(C(F)(F)F)cc(NC(=O)c3cccnc3)c2SCCN)ncn1 [Compound 315] |  | 34 µM | 21 µM

Further lines, with some results ahead:

IC50 [1] | Structure (SMILES) | EC50 (HepG2 cells) | EC50 (3T3 cells)
0.286 µM | N=C(N)NCCCCCC(=O)Nc1cc(C(F)(F)F)cc(NC(=O)c2cc(C(=O)Nc3cc(C(F)(F)F)cc(NC(=O)CCCCCNC(=N)N)c3SCCN)ncn2)c1SCCN [Compound 106] | 89 µM | 79 µM
0.66 µM | CCN(CC)CCN(CCN)c1ccc(C(F)(F)F)cc1NC(=O)Nc1cc(C(F)(F)F)ccc1N(CCN)CCN(CC)CC [Compound 126] | 562 µM | 140 µM
0.738 µM | CCN(CC)CCN(CCN)c1c(F)cc(C(F)(F)F)cc1NC(=O)Nc1cc(C(F)(F)F)cc(F)c1N(CCN)CCN(CC)CC [Compound 127] | 413 µM | 132 µM
0.56 µM | N=C(N)NCCc1cccc(NC(=O)c2cc(C(=O)Nc3cccc(CCNC(=N)N)c3)nc(SCCN)n2)c1 [Compound 182] | 345 µM | 330 µM
> 2 µM | Nc1cccc(NC(=O)c2cc(C(=O)Nc3cccc(N)n3)ncn2)n1 [Compound 189] | > 1000 µM | > 1000 µM
0.026 µM | N=C(N)N1CC[C@@H](Oc2ccc(NC(=O)c3cc(C(=O)Nc4ccc(O[C@@H]5CCN(C(=N)N)C5)c(C(F)(F)F)c4)ncn3)cc2C(F)(F)F)C1 [Compound 190] | 41 µM | 33 µM
0.005 µM | CC(C)(C)c1cc(NC(=O)c2cccc(C#N)c2)c(SCCN)c(NC(=O)c2cc(C(=O)Nc3cc(C(C)(C)C)cc(NC(=O)c4cccc(C#N)c4)c3SCCN)ncn2)c1 [Compound 198] | 30 µM | 7 µM
0.007 µM | CN(C)CCSc1ccc(NC(=O)c2cc(C(=O)Nc3ccc(SCCN(C)C)cc3)ncn2)cc1 [Compound 202] | 648 µM | 632 µM
> 0.1 µM | O=C(Nc1ccc(N2CCNCC2)cc1)c1cccc(C(=O)Nc2ccc(N3CCNCC3)cc2)n1 [Compound 211] | > 1000 µM | > 1000 µM
0.035 µM | CN(C)C1CCN(c2ccc(NC(=O)c3cc(C(=O)Nc4ccc(N5CCC(N(C)C)CC5)cc4)ncn3)cc2)CC1 [Compound 213] | 51 µM | 244 µM
0.516 µM | NCCc1cccc(-c2cncc(-c3ccc(-c4cncc(-c5cccc(CCN)c5)c4)s3)c2)c1 [Compound 223] | 82 µM | 18 µM
0.655 µM | NCCc1cccc(-c2cncc(-c3ccc(-c4cncc(-c5cccc(CCN)c5)c4)cc3)c2)c1 [Compound 234] | > 1000 µM | > 1000 µM
> 2 µM | NCCc1cccc(-c2ccc(-c3cccc(CCN)c3)cc2)c1 [Compound 235] | 156 µM | 14 µM
0.109 µM | N=C(N)NCCc1cccc(-c2ccc(-c3cccc(CCNC(=N)N)c3)s2)c1 [Compound 238] | 310 µM | 108 µM
0.121 µM | N=C(N)NCCc1cccc(-c2ccc(-c3cccc(CCNC(=N)N)c3)o2)c1 [Compound 240] | 904 µM | 461 µM
> 2 µM | NCCc1cccc(-c2cnc(-c3cccc(CCN)c3)s2)c1 [Compound 242] | 584 µM | 71 µM
0.034 µM | NCCc1ccc(-c2ccc(-c3ccc(CCN)cc3)s2)cc1 [Compound 247] | 74 µM | < 14 µM
